Experimental findings from BindingDB's records for doi:10.7270/Q2HM57BR (D3R/Abbott, 2015) are described below.

The structures appear in SMILES notation.

This assay deals with T1, UDP-3-O-acyl-N-acetylglucosamine deacetylase (Pseudomonas aeruginosa (strain ATCC 15692 / DSM 22644 / CIP 104116 / JCM 14847 / LMG 12228 / 1C / PRS 101 / PAO1), UniProt P47205).
T1 sequence (P47205 whole entry): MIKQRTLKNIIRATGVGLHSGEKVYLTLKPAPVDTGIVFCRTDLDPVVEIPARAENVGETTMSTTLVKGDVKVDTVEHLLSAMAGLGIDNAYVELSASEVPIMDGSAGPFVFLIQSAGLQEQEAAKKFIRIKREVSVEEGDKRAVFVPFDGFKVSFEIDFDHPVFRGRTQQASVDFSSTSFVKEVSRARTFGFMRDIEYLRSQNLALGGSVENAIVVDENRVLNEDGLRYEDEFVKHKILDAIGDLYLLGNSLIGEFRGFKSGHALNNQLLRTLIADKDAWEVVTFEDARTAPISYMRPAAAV
Briefly: Thermofluor_Method1.
Consider `CC1(CNC(=O)c2ccc(-c3ccccc3)cc2)NC(=O)NC1=O` (stereo unspecified) [CS21], for which the dissociation constant Kd was > 100 µM.
`CC1(CNC(=O)c2ccc(C#Cc3ccccc3)cc2)NC(=O)NC1=O` (stereo unspecified) [CS22] had a dissociation constant (Kd) of 93.4 µM.
`CC1(CNC(=O)c2ccc(-c3ccc(Br)cc3)cc2)NC(=O)NC1=O` (stereo unspecified) [CS23]: the Kd is > 100 µM.
As for `CC1(CNC(=O)c2ccc(C#CC#Cc3ccccc3)cc2)NC(=O)NC1=O` (stereo unspecified) [CS243], the Kd was determined as 63.9 µM.
Take `NC[C@H](NC(=O)c1ccc(-c2ccccc2)cc1)C(=O)NO` [CS249]: the Kd came out at 0.393 µM.
For the compound `NC[C@H](NC(=O)c1ccc(-c2ccc(Br)cc2)cc1)C(=O)NO` [CS250], the dissociation constant (Kd) was 0.19 µM.
`NC[C@H](NC(=O)c1ccc(C#CC#Cc2ccccc2)cc1)C(=O)NO` [CS252] displayed a dissociation constant Kd of 0.0586 µM.
In the case of `C[C@@H](O)[C@H](NC(=O)c1ccc(-c2ccccc2)cc1)C(=O)NCC1(C)NC(=O)NC1=O` (stereo partly specified) [CS253], the equilibrium dissociation constant (Kd) was > 100 µM.
Turning to `C[C@@H](O)[C@H](NC(=O)c1ccc(C#Cc2ccccc2)cc1)C(=O)NCC1(C)NC(=O)NC1=O` (stereo partly specified) [CS254], the equilibrium dissociation constant (Kd) was > 100 µM.
As for `C[C@@H](O)[C@H](NC(=O)c1ccc(C#CC#Cc2ccccc2)cc1)C(=O)NCC1(C)NC(=O)NC1=O` (stereo partly specified) [CS255], the figure is > 100 µM; as for `C[C@@H](O)[C@H](NC(=O)c1ccc(-c2ccc(Br)cc2)cc1)C(=O)NCC1(C)NC(=O)NC1=O` (stereo partly specified) [CS256], > 100 µM.
As for `C[C@@H](O)[C@H](NC(=O)c1ccc(C#CC#Cc2ccccc2)cc1)C(=O)NO` [CS257], the Kd was 0.00835 µM.
The result for `C[C@@H](O)[C@H](NC(=O)c1ccc(-c2ccc(Br)cc2)cc1)C(=O)NO` [CS258] reads 0.0332 µM.
In turn, `C[C@@H](O)[C@H](NC(=O)c1ccc(C#Cc2ccccc2)cc1)C(=O)NO` [CS259] displayed a Kd of 0.0201 µM.
`C[C@@H](O)[C@H](NC(=O)c1ccc(-c2ccccc2)cc1)C(=O)NO` [CS263] showed a dissociation constant (Kd) of 0.0745 µM.
As for `CC1(CNC(=O)[C@H](CN)NC(=O)c2ccc(-c3ccccc3)cc2)NC(=O)NC1=O` (stereo partly specified) [CS264], the figure is > 100 µM; as for `CC1(CNC(=O)[C@H](CN)NC(=O)c2ccc(C#CC#Cc3ccccc3)cc2)NC(=O)NC1=O` (stereo partly specified) [CS265], > 100 µM.
Turning to `CC1(CNC(=O)[C@H](CN)NC(=O)c2ccc(C#Cc3ccccc3)cc2)NC(=O)NC1=O` (stereo partly specified) [CS266], the Kd is > 100 µM.
Turning to `CC1(CNC(=O)[C@H](CN)NC(=O)c2ccc(-c3ccc(Br)cc3)cc2)NC(=O)NC1=O` (stereo partly specified) [CS267], the dissociation constant (Kd) is > 100 µM.
As for `O=C(NO)[C@H]1COC(c2ccc([N+](=O)[O-])cc2)=N1` [CS268], the figure is 7.25 µM; as for `O=C(NO)[C@H]1COC(c2ccc(OCc3cccc(F)c3)c(OC(F)(F)F)c2)=N1` [CS269], > 100 µM; as for `O=C(NO)[C@H]1COC(c2ccc(OC(F)(F)F)c(Cl)c2)=N1` [CS270], 3.8 µM.
Consider `O=C(NO)[C@H]1COC(c2ccc(F)c(C(F)(F)F)c2)=N1` [CS271], for which the Kd is 1.03 µM.
For `O=C(NO)[C@H]1COC(c2cc3cc(F)ccc3[nH]2)=N1` [CS272], the affinity, expressed as Kd, was 1.5 µM.
For the compound `CN(C)c1ccc(C2=N[C@@H](C(=O)NO)CO2)cc1` [CS273], the equilibrium dissociation constant (Kd) was > 100 µM.
`CCCc1ccc(-c2ccc(C3=N[C@@H](C(=O)NO)CO3)cc2)cc1` [CS274] showed a dissociation constant (Kd) of 15.6 µM.
As for `O=C(NO)c1csc(-c2ccc(OC(F)(F)F)c(Cl)c2)n1` [CS275], the figure is 21.5 µM; as for `O=C(NO)C1=C[SiH2]C(c2ccc(F)cc2)=N1` (stereo unspecified) [CS276], 28.5 µM; as for `O=C(NO)c1csc(-c2ccc(F)c(C(F)(F)F)c2)n1` [CS277], 2.91 µM.
Regarding `CN(C)c1ccc(-c2nc(C(=O)NO)cs2)cc1` [CS278], the dissociation constant (Kd) was 28.2 µM.
`O=C(NO)[C@H]1COC(c2ccc(F)cc2)=N1` [CS279] came in with a dissociation constant (Kd) of 11.1 µM.
